Calls of active or inactive are those of the source. No cut-off for these calls is given here. Non-standard residues stand in square brackets, D forms with d. Residues, ends and D or L forms follow the SMILES beside them. *: point of attachment. Sta = CC(C)C[C@H](N)[C@@H](O)CC(=O)O; Isovaleryl = CC(C)CC(=O)*
How the values were obtained:
[1] = target: Protease (Human immunodeficiency virus 1) (UniProt Q9YQ12); test: Inhibition of HIV1 protease at 50 nM using Abz-Tyr-Ile-Nle-Nph-Gln-Arg as substrate preincubated for 10 mins followed by substrate addition and measured by FRET assay
[2] = target: Protease (Human immunodeficiency virus 1) (UniProt Q9YQ12); test: Inhibition of HIV1 protease at 5 uM using Abz-Tyr-Ile-Nle-Nph-Gln-Arg as substrate preincubated for 10 mins followed by substrate addition and measured by FRET assay
[3] = target: T1, Renin (Homo sapiens) (UniProt P00797); test: Inhibition of recombinant human N-terminal FLAG-tagged renin (67 to 406 residues) expressed in HEK cells at 5 uM using Arg-Glu(EDANS)-Ile-His-Pro-Phe-His-Leu-Val-Ile-His-Thr-Lys(Dabcyl)-Arg as substrate preincubated for 10 mins followed by substrate addition and measured by FRET assay
T1 sequence (whole entry): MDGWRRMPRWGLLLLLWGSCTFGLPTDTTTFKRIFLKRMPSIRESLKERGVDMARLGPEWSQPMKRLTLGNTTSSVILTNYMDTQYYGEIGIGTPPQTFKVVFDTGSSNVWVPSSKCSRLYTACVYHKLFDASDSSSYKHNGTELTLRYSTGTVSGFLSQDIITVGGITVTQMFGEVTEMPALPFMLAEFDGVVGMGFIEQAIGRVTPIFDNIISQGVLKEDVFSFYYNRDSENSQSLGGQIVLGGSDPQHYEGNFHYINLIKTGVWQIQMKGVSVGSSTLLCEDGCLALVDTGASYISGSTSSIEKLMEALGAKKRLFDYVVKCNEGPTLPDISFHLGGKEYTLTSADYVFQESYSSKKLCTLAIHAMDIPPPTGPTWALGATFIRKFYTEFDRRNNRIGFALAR

[4] = tested on: Ixodes ricinus; test: Inhibition of Ixodes ricinus CatD expressed in Escherichia coli BL21(DE3) at 50 nM using Abz-Lys-Pro-Ala-Glu-Phe-Nph-Ala-Leu as substrate preincubated for 10 mins followed by substrate addition and measured by FRET assay
[5] = target: Beta-secretase 1 (Homo sapiens) (UniProt P56817); test: Inhibition of recombinant human C-terminal 10His-tagged BACE1 expressed in mouse NS0 cells at 5 uM using Mca-Ser-Glu-Val-Asn-Leu-Asp-Ala-Glu-Phe-Arg-Lys(Dnp)-Arg-Arg as substrate preincubated for 10 mins followed by substrate addition and measured by FRET assay
[6] = target: Saccharopepsin (Saccharomyces cerevisiae S288c) (UniProt P07267); test: Inhibition of Baker's yeast proteinase A at 50 nM using Abz-Lys-Pro-Ala-Glu-Phe-Nph-Ala-Leu as substrate preincubated for 10 mins followed by substrate addition and measured by FRET assay
[7] = target: T1, Renin (Homo sapiens); test: Inhibition of recombinant human N-terminal FLAG-tagged renin (67 to 406 residues) expressed in HEK cells at 50 nM using Arg-Glu(EDANS)-Ile-His-Pro-Phe-His-Leu-Val-Ile-His-Thr-Lys(Dabcyl)-Arg as substrate preincubated for 10 mins followed by substrate addition and measured by FRET assay
[8] = target: Beta-secretase 1 (Homo sapiens) (UniProt P56817); test: Inhibition of recombinant human C-terminal 10His-tagged BACE1 expressed in mouse NS0 cells at 50 nM using Mca-Ser-Glu-Val-Asn-Leu-Asp-Ala-Glu-Phe-Arg-Lys(Dnp)-Arg-Arg as substrate preincubated for 10 mins followed by substrate addition and measured by FRET assay
[9] = target: Cathepsin D (Homo sapiens, UniProt P07339); test: Inhibition of human placenta CatD using Abz-Lys-Pro-Ala-Glu-Phe-Nph-Ala-Leu as substrate preincubated for 10 mins followed by substrate addition and measured by FRET assay
Sequence of Cathepsin D (P07339 65-162 limits assumed): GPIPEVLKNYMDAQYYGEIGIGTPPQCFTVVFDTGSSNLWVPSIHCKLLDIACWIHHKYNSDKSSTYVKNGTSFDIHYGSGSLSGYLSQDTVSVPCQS
Sequence of Cathepsin D (P07339 169-412 limits assumed): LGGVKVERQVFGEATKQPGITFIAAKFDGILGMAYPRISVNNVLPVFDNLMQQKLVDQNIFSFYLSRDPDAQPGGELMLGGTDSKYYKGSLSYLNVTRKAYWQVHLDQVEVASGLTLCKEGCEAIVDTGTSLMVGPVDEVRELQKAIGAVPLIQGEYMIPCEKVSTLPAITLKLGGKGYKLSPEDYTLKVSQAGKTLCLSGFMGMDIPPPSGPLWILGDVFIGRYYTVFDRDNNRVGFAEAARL

Sequence of Beta-secretase 1 (Homo sapiens) (P56817 whole entry): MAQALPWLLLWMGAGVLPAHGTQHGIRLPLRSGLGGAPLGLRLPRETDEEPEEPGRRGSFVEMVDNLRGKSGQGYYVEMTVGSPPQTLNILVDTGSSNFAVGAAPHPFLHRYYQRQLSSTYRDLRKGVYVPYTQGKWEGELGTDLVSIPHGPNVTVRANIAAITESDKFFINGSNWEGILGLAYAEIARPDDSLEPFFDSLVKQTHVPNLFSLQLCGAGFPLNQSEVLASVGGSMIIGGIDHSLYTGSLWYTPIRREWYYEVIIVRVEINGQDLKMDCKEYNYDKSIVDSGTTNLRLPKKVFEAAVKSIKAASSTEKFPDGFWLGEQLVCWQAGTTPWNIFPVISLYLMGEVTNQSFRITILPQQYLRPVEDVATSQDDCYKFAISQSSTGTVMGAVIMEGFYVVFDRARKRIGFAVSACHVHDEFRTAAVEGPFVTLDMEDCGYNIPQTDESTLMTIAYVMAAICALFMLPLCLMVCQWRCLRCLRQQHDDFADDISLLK
Sequence of Protease (Human immunodeficiency virus 1) (Q9YQ12 as listed by the source): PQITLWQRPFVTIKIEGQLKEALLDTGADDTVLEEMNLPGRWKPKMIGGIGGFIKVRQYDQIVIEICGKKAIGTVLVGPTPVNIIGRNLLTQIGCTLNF
Sequence of Saccharopepsin (Saccharomyces cerevisiae S288c) (P07267 whole entry, the tested form may be a part): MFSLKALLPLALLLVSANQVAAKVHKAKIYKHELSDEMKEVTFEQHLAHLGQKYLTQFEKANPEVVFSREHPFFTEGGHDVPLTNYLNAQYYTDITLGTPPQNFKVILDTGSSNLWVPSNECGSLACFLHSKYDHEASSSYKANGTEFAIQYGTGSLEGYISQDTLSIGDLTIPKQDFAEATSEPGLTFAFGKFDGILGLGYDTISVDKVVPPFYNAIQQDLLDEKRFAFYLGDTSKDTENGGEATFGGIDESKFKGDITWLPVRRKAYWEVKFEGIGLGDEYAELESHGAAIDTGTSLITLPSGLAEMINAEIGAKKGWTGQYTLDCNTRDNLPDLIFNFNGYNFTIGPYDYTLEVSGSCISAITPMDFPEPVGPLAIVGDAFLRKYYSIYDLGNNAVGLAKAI

Row | inhibition [1] | inhibition [2] | inhibition [3] | inhibition [4] | inhibition [5] | inhibition [6] | inhibition [7] | inhibition [8] | IC50 [9] | Compound
1 | inactive | Active | Active | Active | Active | Active | inactive | inactive | 55 nM | CC(C)[C@@H]1NC(=O)C[C@H](O)[C@H](Cc2ccc(OCc3ccccc3)cc2)NC(=O)CCCCCCCCCCCNC1=O
2 | inactive | Active | Active | Active | Active | Active | inactive | inactive | 0.6 nM | CC(C)[C@@H]1NC(=O)C[C@H](O)[C@H](Cc2ccc3ccccc3c2)NC(=O)CCCCCCCCCCCNC1=O
3 | – | – | – | – | – | – | – | – | > 200000 nM | CC(C)CC(=O)N[C@@H](CC(C)C)[C@@H](O)CC(=O)N[C@@H](C)C(=O)O
4 | inactive | Active | Active | Active | Active | Active | inactive | inactive | 68 nM | C[C@@H]1NC(=O)C[C@H](O)[C@H](Cc2ccccc2)NC(=O)CCCCCCCCCCCNC1=O
5 | inactive | Active | Active | Active | Active | Active | inactive | inactive | 4.7 nM | CC(C)[C@@H]1NC(=O)C[C@H](O)[C@H](Cc2ccc(F)cc2)NC(=O)CCCCCCCCCCCNC1=O
6 | – | – | – | – | – | – | – | – | 500 nM | CC(C)CC(=O)N[C@H](C(=O)N[C@H](C(=O)N[C@@H](CC(C)C)[C@@H](O)CC(=O)O)C(C)C)C(C)C (Isovaleryl-Val-Val-[Sta]-OH)
7 | – | – | – | – | – | – | – | – | 40 nM | CC(C)CC(=O)N[C@H](C(=O)N[C@H](C(=O)N[C@@H](CC(C)C)[C@@H](O)CC(=O)N[C@@H](C)C(=O)O)C(C)C)C(C)C (Isovaleryl-VV[Sta]A-OH)
8 | inactive | Active | Active | Active | Active | Active | inactive | inactive | 600 nM | CC(C)[C@@H]1NC(=O)C[C@H](O)[C@H](Cc2cscn2)NC(=O)CCCCCCCCCCCNC1=O
9 | inactive | Active | Active | Active | Active | Active | inactive | inactive | 8.2 nM | O=C1C[C@H](O)[C@H](Cc2ccccc2)NC(=O)CCCCCCCCCCCNC(=O)[C@H](C2CCCCC2)N1
10 | inactive | Active | Active | Active | Active | Active | inactive | inactive | 40 nM | CC(C)[C@@H]1NC(=O)C[C@H](O)[C@H](Cc2ccccc2)NC(=O)CCCCCCCCCCNC1=O
11 | inactive | Active | Active | Active | Active | Active | inactive | inactive | 560 nM | C[C@@H](OCc1ccccc1)[C@@H]1NC(=O)C[C@H](O)[C@H](Cc2ccccc2)NC(=O)CCCCCCCCCCCNC1=O
12 | inactive | Active | Active | Active | Active | Active | inactive | inactive | 21 nM | CC(C)[C@@H]1NC(=O)NC[C@H](O)[C@H](Cc2ccccc2)NC(=O)CCCCCCCCCCCNC1=O
13 | inactive | Active | Active | Active | Active | Active | inactive | inactive | 4.2 nM | CC(C)[C@@H]1NC(=O)C[C@H](O)[C@H](Cc2ccc(Cl)c(Cl)c2)NC(=O)CCCCCCCCCCCNC1=O
14 | inactive | Active | Active | Active | Active | Active | inactive | inactive | 500 nM | C[C@@H](O)[C@@H]1NC(=O)C[C@H](O)[C@H](Cc2ccccc2)NC(=O)CCCCCCCCCCCNC1=O
15 | inactive | Active | Active | Active | Active | Active | inactive | inactive | 850 nM | CC(C)[C@@H]1NC(=O)C[C@H](O)[C@H](Cc2ccccc2)NC(=O)CCOCCOCCOCCNC1=O
16 | inactive | Active | Active | Active | Active | Active | inactive | inactive | 32 nM | CC(C)[C@@H]1NC(=O)C[C@H](O)[C@H](Cc2ccccc2)NC(=O)CCCCCCCCCCCCCCNC1=O
17 | inactive | Active | Active | Active | Active | Active | inactive | inactive | 3.1 nM | CC(C)[C@@H]1NC(=O)C[C@H](O)[C@H](Cc2ccc(F)c(F)c2)NC(=O)CCCCCCCCCCCNC1=O
18 | inactive | Active | Active | Active | Active | Active | inactive | inactive | 20 nM | CC(C)[C@@H]1NC(=O)C[C@H](O)[C@H](CSCc2ccccc2)NC(=O)CCCCCCCCCCCNC1=O
19 | inactive | Active | Active | Active | Active | Active | inactive | inactive | 310 nM | CC(C)C[C@@H]1NC(=O)CCCCCCCCCCCNC(=O)[C@H](C)NC(=O)C[C@@H]1O
20 | inactive | Active | Active | Active | Active | Active | inactive | inactive | 3.5 nM | CC(C)[C@@H]1NC(=O)C[C@H](O)[C@H](Cc2ccccc2)NC(=O)CCCCCCCCCCCCNC1=O
21 | – | – | – | – | – | – | – | – | 2500 nM | CC(C)CC(=O)N[C@@H](CC(C)C)[C@@H](O)CC(=O)N[C@@H](C)C(=O)N[C@@H](CC(C)C)[C@@H](O)CC(=O)O

— ChEMBL document CHEMBL4321885, “Biomimetic Macrocyclic Inhibitors of Human Cathepsin D: Structure-Activity Relationship and Binding Mode Analysis” (J Med Chem, 2020)
